# Experiments:
# [1] = system: ovarian cancer cell lines; design: method as in doi:10.1021/OM500317B; conditions: ovarian cancer cell lines ref 20; cited from earlier work
# [2] = system: cervical, breast, hepatocellular and colorectal cancer cell lines; design: method as in PMID 24793593; conditions: hepatocellular and colorectal cancer cell lines ref 19; cited from earlier work
# [3] = Cytotoxicity on HUVECs, trypan blue exclusion assay; type: cell-based, human; conditions: human, HUVEC cells, % of control, p > 0.05 vs control, read-out: Cell viability of HUVECs
# Description: The biocompatibility of flavones (1 and 2)[30] alongside their ruthenium(II) metal complexes (1Ru and 2Ru) with HUVEC cells was established using the trypan blue exclusion assay. A concentration four times higher (i.e. 40 μM) than the highest concentration used for the tube formation antiangiogenic evaluation study (i.e. 10 μM) was selected for this cytotoxic assay.
# Cytotoxic activity of treatments on HUVECs using trypan blue exclusion assay.[55] HUVECs were seeded in 96 well plates at 1 × 10^5 cells per mL and cultured for 24 h. Cells were then treated with either luteolin, the synthesised derivatives at 40 μM or culture medium (control) for 24 h. After 24 h, solutions were removed and cells washed with 100 μL PBS followed by the addition of 50 μL trypsin–EDTA and incubation for 5 min to detach the cells. 50 μL of EGM-2 media was added to the wells. 50 μL aliquots of the cell suspension were mixed with equal volume of trypan blue (TB) 0.2% v/v (prepared from 0.4% TB diluted with PBS) then the cells were counted using a haemocytometer. Number of viable and dead cells were counted manually and % cell viability of each treatment was expressed as % of control using the equation:% Cell Viability = (Cell viability in treatment/Cell viability in control) × 100where cell viability was calculated as follows:Cell Viability = Number of viable cells/Total number of cells(viable and dead).
# MDA-MB-231 [4] = assay: Cell viability, 72 h MTT assay; type: cell-based, human; conditions: Homo sapiens; MDA-MB-231, 72 h MTT, mean ± SEM, n = 3
# Description: (§1) The unique chemical features and coordination geometries of metal ions can add several additional binding interactions that can potentially enhance their anticancer properties for example by allowing intercalation and exploitation of their redox potential.[24] […] In that context, coordination of derivative (2) with a Ru(II) metal ligand is a promising approach to further improve its antiproliferative activity.
# (§2) MCF-7 and MDA-MB-231 cells were seeded at a density of 4 × 10^4 and 2 × 10^4 cells per mL, respectively, into 96 well plates and incubated to allow the attachment for 24 h. After 24 h, the cells were treated with one of the synthesised derivatives at range of concentrations (0–100 μM) for 67 h. After 67 h, 20 μL of MTT (5 mg mL^−1) solution in PBS was added to each well and the cells were incubated for 5 h. The purple crystals formed were dissolved in 100 μL of DMSO and the plates were read at 560 nm using a SPECTRA max UV spectrometer (Bio-Rad). The data represented are the mean of the three individual experiments.
# MCF-7 [5] = assay: Cell viability, 72 h MTT assay; type: cell-based, human; conditions: Homo sapiens, MCF7; MCF-7, 72 h MTT, mean ± SEM, n = 3
# Description: as §1, §2
# MDA-MB-231 [6] = assay: Wound healing (migration) 24 h scratch assay; type: cell-based, human; conditions: MDA-MB-231, 1, 10, 20 μM, 24 h
# Description: (§3) Malignant cell migration is essential for tumour invasion and metastasis.[1] Thus, the ability of the synthetic flavones (1 and 2) and their Ru(II) metal complexes (1Ru and 2Ru) to inhibit the migration of breast cancer cells (MCF-7 and MDA-MB-231) was assessed by an in vitro 24 h scratch assay. Low, sub-cytotoxic concentrations of 1, 10 and 20 μM were used in this evaluation.
# (§4) MCF-7 or MDA-MB-231 cells were seeded in 12-well plates at 2 × 10^5 or 1 × 10^5 cells per mL, respectively, and cultured until 70–80% confluency. Afterwards, they were serum-starved (0% serum) for 24 h to inactivate the cell proliferation. A scratch was performed on the cell monolayers using a 200 μL pipette tip. Cells were then washed twice with PBS and treated with complete medium and one of the synthesized derivatives at 1, 10 or 20 μM. […] Images of the scratches were taken immediately after performing the scratch (t = 0 h) and at 24 h (t = 24 h). The area not covered by the cells was quantified using ImageJ software. % of wound closure was calculated using the following equation:100 × ((Area of scratch at t0 − Area of scratch at t24)/Area of scratch at t0)
# MCF-7 [7] = assay: Wound healing (migration) 24 h scratch assay; type: cell-based, human; conditions: MCF-7, any of the tested doses (1, 10, 20 μM)
# Description: as §3, §4
# c-myc i-motif DNA [8] = assay: I-motif DNA UV melting (thermal stability); type: binding, human; conditions: for Tm: c-myc i-motif with flavone at 1 : 1 ratio, 295 nm, free DNA 45 °C; for ΔTm: c-myc i-motif, 1 : 1 ratio, ΔTm = Tm (DNA-flavone) − Tm (DNA)
# Text: (§5) The effect of this set of flavones on VEGF and c-myc was further evaluated via thermal stability measurements. Stabilizing/destabilizing the promotor i-motif structures is often reported to regulate expression of the corresponding genes, which for VEGF and c-myc could have detrimental effects on cancer growth and propagation.[48] As observed in Fig. 9, effects of the test flavones on the thermal stability of the VEGF and c-myc i-motif sequences were generally marginal and in agreement with λmax chromophoric shifts. […] Compound 1 destabilized VEGF i-motif in contrast to stabilizing the c-myc one. This mirrored the trend of a higher chromophoric shift observed for flavone 1 with VEGF i-motif sequence that also differed in pattern (hypochromic) from the shift witnessed with the c-myc sequence (hyperchromic). These findings could indicate higher selectivity of the 4-oxo derivative (1) towards VEGF i-motif based on an intercalative binding mode especially that hypochromic shifts are reported with DNA intercalation.[49,50] […] In this regard, the highest i-motif activity seen for the parent flavonoids was switched from VEGF to c-myc with compound 1 and vice versa with compound 2 upon Ru chelation. This emphasizes the key role of the interplay between the substitution at position 4 and metal complexation on the interaction with biological targets.
# (§6) UV-visible absorbance measurements and DNA UV melting studies were performed on a Cary 300 C (Varian USA) UV-visible spectrophotometer. VEGF and c-myc i-motif DNA (5′-3′ sequences ([…]) and ([…]), respectively) were purchased from Sigma-Aldrich (Gillingham, UK) and used without further purification. Na cacodylate buffer (20 mM, pH 5.5) was used for both i-motifs. DNA concentrations were determined by measuring the absorbance at 260 nm after melting using the molar extinction coefficient supplied by the manufacturer. VEGF and c-myc i-motifs were prepared for experiments by diluting with buffer solution, annealed with or without the flavonoid at 95 °C for 5 min then gently cooled to room temperature. The stock solutions of the test compounds (20 mM) were prepared in 100% sterile DMSO. These stocks were then appropriately diluted with HPLC grade water and DMSO levels were maintained below 0.1% in the test concentrations.
# (§7) UV-visible absorbance measurements and UV melting studies of either free i-motifs (VEGF or c-myc), free flavone (1, 1Ru, 2 or 2Ru) or both i-motif DNA and flavone (2 μM: 2 μM) were recorded using 1.0 cm matched quartz cuvettes. First spectra were recorded in the range of 200–500 nm to determine the relevant wavelength range were no peaks were observed above 320 nm. […] UV-visible absorbance was measured at 25 °C while melting curves were collected at a heating rate of 1 °C min^−1 from 20 to 90 °C. Tm was calculated by non-linear fitting of the sigmoidal curve obtained at 295 nm.
# VEGF i-motif DNA [9] = assay: I-motif DNA UV melting (thermal stability); type: binding, human; conditions: for Tm: VEGF i-motif with flavone at 1 : 1 ratio, 295 nm, free DNA 46 °C; for ΔTm: VEGF i-motif, 1 : 1 ratio, ΔTm = Tm (DNA-flavone) − Tm (DNA)
# Text: as §5, §6, §7
# c-myc i-motif DNA [10] = assay: I-motif DNA binding, UV-visible absorbance; design: species or system human; conditions: DNA : flavonoid 2 μM : 2 μM, pH 5.5, 25 °C
# Text: (§8) I-motifs are four stranded antiparallel cytosine rich DNA sequences capable of forming at telomere and promotor regions of genomic DNA.[41,42] […] Due to the presence of potential i-motif forming sequences in 69% of promoter regions in human oncogenes, they are postulated to play a key role in oncogene expression regulation.[44] VEGF and c-myc i-motif sequences are prevalent in oncogene promotor regions in many cancers including breast cancer and as such their ligands have potential anticancer roles.[45] The natural flavonol, fisetin, is reported to specifically bind to VEGF i-motif DNA and regulate its function by stabilizing its hairpin structure.[31] […] In continuation of our investigation of the effects of Ru metal complexation on the different biological activities of flavonoids, interactions with VEGF and c-myc i-motif DNA were studied using UV-vis spectroscopic techniques. […] However, 2Ru's addition led to a 1 nm hypsochromic shift of VEGF i-motif absorbance maximum from 272 to 271 nm. On the other hand, addition of the 4-oxo flavone (1) and its Ru complex (1Ru) led to minor changes in λmax of both sequences that was hypochromic (5% and 3%) with VEGF and hyperchromic (2% and 5%) in case of c-myc (Fig. 8).
# as §6, §7
# VEGF i-motif DNA [11] = assay: I-motif DNA binding, UV-visible absorbance; design: species or system human; conditions: DNA : flavonoid 2 μM : 2 μM, pH 5.5, 25 °C
# Text: as §8, §6, §7
# HUVECs = assay: Matrigel endothelial cell tube formation assay (VEGF-mediated); type: cell-based, human; conditions: compared to the positive control (10 ng mL^−1 VEGF), 12 h
# Description: In our recent study,[30] the 4′-chlorophenylflavone derivatives 1 and 2 have shown promising antiangiogenic activities in vitro. Herein, the effect of complexation with a ruthenium(II) metal ligand on the antiangiogenic activity of 1 and 2 was evaluated using the Matrigel tube formation assay that assesses many of the main steps involved in the process of angiogenesis. Inhibition of VEGF-mediated tube formation by the tested substrates was observed after 12 h of treatment on HUVECs at 1 μM and 10 μM concentrations. Luteolin is a natural flavone well known for its high antiangiogenic activity both in vitro and in vivo[34] and as such was used in this study as a reference standard. In accordance with reported data, luteolin inhibited the measured elements of tube formation by 30% compared to the positive control.[34,35] […] The ability of Ru(II) organometallic derivatives to target tumour metastasis has been widely reported both in vitro and in vivo.[3,6,9,36] Thus, based on the preliminary antiangiogenic trends observed for our target Ru(II) complexes (1Ru and 2Ru) and their parent flavones (1 and 2), we further investigated their antiproliferative and antimetastatic potential on the estrogen receptor positive breast cancer cell line (MCF-7) and the more aggressive triple negative cell line (MDA-MB-231).
# HUVECs were cultured until confluency and then serum starved (0.1% serum) for 24 h. The tube formation assay followed the reported assay.[56] Briefly, 96 well plates were coated with 50 μL of Corning™ Matrigel™ GFR Membrane Matrix at 4 °C and incubated at 37 °C for 1–2 h to solidify. Serum starved HUVECs were seeded on the solidified Matrigel at 3 × 10^5 cells per mL and treated with medium containing VEGF (10 ng mL^−1) and either luteolin or one of the synthesised derivatives (at 1 μM or 10 μM). Plates were incubated for 12 h and photos covering the whole well area were taken using 4× magnification power of an inverted light microscope. Number of junctions, number and length of segments and master segments were quantified from the taken Images via the Angiogenesis Analyzer plugin[57] in ImageJ software.[58] […] Data was represented as a ratio to the positive control (VEGF enriched).
Structure (SMILES),IC50 [1] [µM],IC50 [2] [µM],"viability at 24 h, 40 µM [3] [%]",IC50 (MDA-MB-231 [4]) [µM],IC50 (MCF-7 [5]) [µM],effect on the migration (MDA-MB-231 [6]),antimigratory activity (MCF-7 [7]),Tm (c-myc i-motif DNA [8]) [°C],ΔTm (c-myc i-motif DNA [8]) [°C],Tm (VEGF i-motif DNA [9]) [°C],ΔTm (VEGF i-motif DNA [9]) [°C],hyperchromic shift (increase) at absorbance maximum λmax (c-myc i-motif DNA [10]) [%],hypochromic change at λmax (VEGF i-motif DNA [11]) [%],inhibition of the measured elements of tube formation (HUVECs) [%],hyperchromic shift (increase) at absorbance maximum λmax (VEGF i-motif DNA [11]) [%],melting point [°C]
N.N.[Cl][Pt][Cl] [cisplatin],1.5 to 25,13 to 52,–,–,–,–,–,–,–,–,–,–,–,–,–,–
"O=c1cc(-c2ccc(Cl)cc2)oc2cc(O)cc(O)c12 [compound 1, 2-(4-chlorophenyl)-5,7-dihydroxy-4H-chromen-4-one]",–,–,~100,> 100,> 100,neither showed any effect,no observed effects,46,1,44,−2,2,5,–,–,–
"O=c1cc(-c2ccc(O)c(O)c2)oc2cc(O)cc(O)c12 [luteolin, Luteolin, reference compound]",–,–,–,–,–,–,–,–,–,–,–,–,–,30,–,–
"Oc1cc(O)c2c(=S)cc(-c3ccc(Cl)cc3)oc2c1 [compound 2, 2-(4-chlorophenyl)-5,7-dihydroxy-4H-chromene-4-thione]",–,–,~100,43.1 ± 1.29,1.2 ± 0.8,–,–,47,2,47,1,18,–,–,16,247.7 to 248
